Measurements from US5726162A (priority 1996, dated 1998).
Where two headings read alike, the source gives them in different places.

Tests used:
[1] = system: Magnaporthe grisea (Pyricularia oryzae); assay: whole plant or invertebrate; assay type: in vivo, Magnaporthe grisea (Pyricularia oryzae) on M201 rice plants; conditions: for pest or weed control at 200 ppm: Pyricularia oryzae, 144 h, read-out: % Control RB; for % Control RB: 200 ppm, protectant
fungal mycelium = assay: organism not typed; assay type: cell-based; conditions: read-out: % growth inhibition
Candida albicans = assay: Activity against Candida albicans in microtiter plates, % control of growth; assay type: cell-based
Method: The activity against Candida albicans was determined using the following test protocol.
Conidia and mycelium from the Candida albicans culture maintained on potato dextrose agar plates were lightly scraped off into yeast extract-dextrose broth (YDB) so that mostly conidia was used as inoculum. The conidial suspsension was strained through a double layer of cheesecloth to remove mycelial clumps. The inoculum mixture was placed in microtiter plates using a 12-tipped pipet. 175 microliters were placed in each well of the microliter plates and the plates were placed in the refrigerator overnight. There were two replications.
The compounds to be tested were dissolved in 1:1 acetone:methanol and 100 ppm of the compound solution were placed in a well of the prepared microtiter plates.
The microtiter plates were incubated for 7 days at room temperature after addition of the compounds. Percent control was visually estimated using a microtiter plate reading mirror. Readings were made at 1, 2, 3, and/or 7 days after treatment.

fungal inoculum = assay: organism not typed; assay type: cell-based
[2] = 24 h, 1 day after treatment, read-out: % control of growth +1
[3] = 48 h, 2 days after treatment, read-out: % control of growth +2
[4] = 72 h, 3 days after treatment, read-out: % control of growth +3

For `CCC#CCN1N=C(c2ccc(Cl)cc2)CCC1=S` [Compound 153, 6-(4-chlorophenyl)-2-(2'-pentynyl)-4,5-dihydropyridazinthione], the pest or weed control at 200 ppm [1] was 0%, the inhibition at 10 ppm (fungal mycelium) was 90.9% and the inhibition of growth at 100 ppm (Candida albicans; [2]) was 100%. The inhibition of growth at 100 ppm (Candida albicans; [3]) was 100% and the inhibition of growth at 100 ppm (Candida albicans; [4]) was 100%.
`CCC#CCN1N=C(c2ccc3ccccc3n2)CCC1=O` [Compound 229, 6-(2-quinoline)-2-(2'-pentynyl)-4,5-dihydropyridazinone] was tested, and the inhibition at 5 ppm (fungal mycelium) was 100%, the inhibition of growth at 100 ppm (Candida albicans; [2]) was 100% and the inhibition of growth at 100 ppm (Candida albicans; [3]) was 100%. For the same compound, the inhibition of growth at 100 ppm (Candida albicans; [4]) was 100%.
For `CCC#CCn1nc(-c2ccc(Cl)c(F)c2)ccc1=O` [Compound 120], the pest or weed control at 200 ppm [1] was 99%, the inhibition at 1 ppm (fungal mycelium) was 100% and the inhibition of growth at 100 ppm (Candida albicans; [2]) was 100%. It also gave an inhibition of growth at 100 ppm (Candida albicans; [3]) of 100% and an inhibition of growth at 100 ppm (Candida albicans; [4]) of 100%.
Work on `CC(C)C#CCN1N=C(c2ccc(Cl)cc2)CCC1=O` [Compound 34] yielded a pest or weed control at 200 ppm [1] of 90%, an inhibition of growth at 100 ppm (Candida albicans; [2]) of 100% and an inhibition of growth at 100 ppm (Candida albicans; [3]) of 100%. It also gave an inhibition of growth at 100 ppm (Candida albicans; [4]) of 100% and an inhibition at 10 ppm (fungal inoculum; read-out: % growth inhibition) of 100%.
`CCC#CCn1nc(-c2ccc(Br)cc2)ccc1=O` [Compound 121] was tested, and the pest or weed control at 200 ppm [1] was 95%, the inhibition at 1 ppm (fungal mycelium) was 100% and the inhibition of growth at 100 ppm (Candida albicans; [2]) was 100%. The inhibition of growth at 100 ppm (Candida albicans; [3]) was 100% and the inhibition of growth at 100 ppm (Candida albicans; [4]) was 100%.
`C=C=CN1N=C(c2ccc(Cl)cc2)CCC1=O` [Compound 52] was tested, and the pest or weed control at 200 ppm [1] was 0% and the inhibition at 50 ppm (fungal inoculum; read-out: % growth inhibition) was 93.7%.
`CCC#CCN1N=C(c2ccc(OC(F)(F)F)c(F)c2)CCC1=O` [Compound 92] showed a pest or weed control at 200 ppm [1] of 90% and an inhibition at 1 ppm (fungal inoculum; read-out: % growth inhibition) of 100%.
`O=C1CCC(c2ccc(Cl)cc2)=NN1CC#CCCF` [Compound 51, 6-(4-chlorophenyl)-2-(5'-fluoro-2'-pentynyl)-4,5-dihydropyridazinone] gave a pest or weed control at 200 ppm [1] of 100% and an inhibition at 50 ppm (fungal inoculum; read-out: % growth inhibition) of 100%.
Compound `CCC#CCn1nc(-c2ccc(Cl)c(C)c2)ccc1=O` [Compound 113] has a pest or weed control at 200 ppm [1] of 95% and an inhibition at 10 ppm (fungal inoculum; read-out: % growth inhibition) of 64.3%.
For `O=C1CCC(c2ccc(Cl)cc2)=NN1CC#CCF` [Compound 76, 6-(4-chlorophenyl)-2-(4'-fluoro-2'-butynyl)-4,5-dihydropyridazinone], the pest or weed control at 200 ppm [1] was 0%, the inhibition at 10 ppm (fungal mycelium) was 100% and the inhibition of growth at 100 ppm (Candida albicans; [2]) was 100%. The inhibition of growth at 100 ppm (Candida albicans; [3]) was 100% and the inhibition of growth at 100 ppm (Candida albicans; [4]) was 100%.
`CCC#CCn1nc(-c2ccc(OCC)cc2)ccc1=O` [Compound 117] was tested, and the pest or weed control at 200 ppm [1] was 0% and the inhibition at 200 ppm (fungal inoculum; read-out: % growth inhibition) was 34.7%.
Work on `CCC#CCC1(CC#CCC)c2cc(Cl)ccc2-c2n[nH]c(=O)cc21` [Compound 151, 5,5'-[bis(pent-2-yn-1-yl)]-7-chloro-2,5-dihydroindeno-[1,2-c]-(2H)-pyridazin-3-one] yielded a pest or weed control at 200 ppm [1] of 0% and an inhibition at 100 ppm (fungal inoculum; read-out: % growth inhibition) of 80.6%.
Compound `CCC#CCn1nc(-c2ccc(Cl)cc2C)ccc1=O` [Compound 115] has a pest or weed control at 200 ppm [1] of 50% and an inhibition at 50 ppm (fungal inoculum; read-out: % growth inhibition) of 93.7%.
Work on `CCC#CCn1cc(-c2ccc(Cl)cc2)cc(C#N)c1=O` [Compound 146, 5-(4-chlorophenyl)-3-cyano-1-(2-pentyn-1-yl)-2-pyridinone] yielded a pest or weed control at 200 ppm [1] of 0% and an inhibition at 10 ppm (fungal inoculum; read-out: % growth inhibition) of 5%.
Work on `CCC#CCn1nc(-c2sc3ccccc3c2Br)ccc1=O` [Compound 148] yielded a pest or weed control at 200 ppm [1] of 0% and an inhibition at 10 ppm (fungal inoculum; read-out: % growth inhibition) of 0%.
`CC#CCN1N=C(c2cccs2)CCC1=O` [Compound 140] showed a pest or weed control at 200 ppm [1] of 75% and an inhibition at 100 ppm (fungal inoculum; read-out: % growth inhibition) of 37.8%.
`CC#CCN1N=C(c2ccc(Oc3ccccc3)cc2)CCC1=O` [Compound 33] showed a pest or weed control at 200 ppm [1] of 0% and an inhibition at 100 ppm (fungal inoculum; read-out: % growth inhibition) of 27.6%.
Compound `CC(O)C#CCN1N=C(c2ccc(Cl)cc2)CCC1=O` (centres unmarked) [Compound 47, 6-(4-chlorophenyl)-2-(4'hydroxy-2'-pentynyl)-4,5-dihydropyridazinone] has a pest or weed control at 200 ppm [1] of 0% and an inhibition at 50 ppm (fungal inoculum; read-out: % growth inhibition) of 100%.
For `CC#CCn1nc(-c2ccc(Cl)c(C)c2)ccc1=O` [Compound 114], the pest or weed control at 200 ppm [1] was 50% and the inhibition at 5 ppm (fungal inoculum; read-out: % growth inhibition) was 100%.
`C=CC#CCN1N=C(c2ccc(Cl)cc2)CCC1=O` [Compound 56, 6-(4-chlorophenyl)-2-(3'-vinyl-2'-propynyl)-4,5-dihydropyridazinone] showed a pest or weed control at 200 ppm [1] of 100%, an inhibition of growth at 100 ppm (Candida albicans; [2]) of 100% and an inhibition of growth at 100 ppm (Candida albicans; [3]) of 100%. For the same compound, the inhibition of growth at 100 ppm (Candida albicans; [4]) was 100% and the inhibition at 1 ppm (fungal inoculum; read-out: % growth inhibition) was 100%.
Work on `CC#CCN1N=C(c2ccc(CC)cc2)CCC1=O` [Compound 58] yielded a pest or weed control at 200 ppm [1] of 0% and an inhibition at 10 ppm (fungal inoculum; read-out: % growth inhibition) of 39.8%.
`CC(F)C#CCn1nc(-c2ccc(Cl)cc2)ccc1=O` (centres unmarked) [Compound 130] showed an inhibition at 1 ppm (fungal mycelium) of 100%, an inhibition of growth at 100 ppm (Candida albicans; [2]) of 100% and an inhibition of growth at 100 ppm (Candida albicans; [3]) of 100%. It also gave an inhibition of growth at 100 ppm (Candida albicans; [4]) of 100%.
`O=C1CCC(c2ccc(Cl)cc2)=NN1CC#CCBr` [Compound 71] was tested, and the pest or weed control at 200 ppm [1] was 0% and the inhibition at 50 ppm (fungal inoculum; read-out: % growth inhibition) was 92.6%.
`CC#CC(C)N1N=C(c2ccc(Cl)cc2)CCC1=O` (centres unmarked) [Compound 22] gave a pest or weed control at 200 ppm [1] of 75% and an inhibition at 100 ppm (fungal inoculum; read-out: % growth inhibition) of 99.7%.
With `CCC#CCn1nc(-c2ccc(Br)c(F)c2)ccc1=O` [Compound 127] the pest or weed control at 200 ppm [1] was 0%, the inhibition at 1 ppm (fungal mycelium) was 100% and the inhibition of growth at 100 ppm (Candida albicans; [2]) was 100%. The inhibition of growth at 100 ppm (Candida albicans; [3]) was 100% and the inhibition of growth at 100 ppm (Candida albicans; [4]) was 100%.
`CCC[CH2][Sn]([C]#CCN1N=C(c2ccc(Cl)cc2)CCC1=O)([CH2]CCC)[CH2]CCC` [Compound 124, 6-(4-chlorophenyl)-2-(3'-tri-n-butyltin-2'-propynyl)-4,5-dihydropyridazinon] was tested, and the “% Control RB” value [1] was 0% and the “% growth inhibition” value (fungal inoculum) was 100.0%.
`O=c1ccc(-c2ccc(Cl)cc2)nn1CC#CCCF` [Compound 131] showed an inhibition at 1 ppm (fungal mycelium) of 100%, an inhibition of growth at 100 ppm (Candida albicans; [2]) of 100% and an inhibition of growth at 100 ppm (Candida albicans; [3]) of 100%. It also gave an inhibition of growth at 100 ppm (Candida albicans; [4]) of 100%.
In the case of `CCC#CCN1N=C(c2ccc(Cl)c([N+](=O)[O-])c2)CCC1=O` [Compound 40], the pest or weed control at 200 ppm [1] is reported as 0% and the inhibition at 5 ppm (fungal inoculum; read-out: % growth inhibition) is reported as 95.7%.
`O=C1CCC(c2ccc(Cl)cc2)=NN1CC#CC1CO1` (centres unmarked) [Compound 77] showed a pest or weed control at 200 ppm [1] of 0% and an inhibition at 10 ppm (fungal inoculum; read-out: % growth inhibition) of 89.2%.
`O=C1CCC(c2ccc(Cl)cc2)=NN1CC1CC1` [Compound 25] showed a pest or weed control at 200 ppm [1] of 50% and an inhibition at 50 ppm (fungal inoculum; read-out: % growth inhibition) of 100%.
In the case of `CC(C)=CCN1N=C(c2ccc(Cl)cc2)CCC1=O` [Compound 32], the pest or weed control at 200 ppm [1] is reported as 0% and the inhibition at 100 ppm (fungal inoculum; read-out: % growth inhibition) is reported as 100%.
In the case of `CC(C)(C)C#CCN1N=C(c2ccc(Cl)cc2)CCC1=O` [Compound 46], the pest or weed control at 200 ppm [1] is reported as 0% and the inhibition at 100 ppm (fungal inoculum; read-out: % growth inhibition) is reported as 100%.
For “5-chloro-1-(2-pentyn-1-yl)-2-quinolinone [Compound 149]”, the “% Control RB” value [1] was 100% and the “% growth inhibition” value (fungal inoculum) was 51.5%.
In the case of `CC#CCn1nc(-c2ccc(Cl)cc2C)ccc1=O` [Compound 116], the pest or weed control at 200 ppm [1] is reported as 0% and the inhibition at 50 ppm (fungal inoculum; read-out: % growth inhibition) is reported as 82.5%.
Compound `CCC#CCN1N=C(c2ccc(C(C)(C)C)cc2)CCC1=O` [Compound 57] has a pest or weed control at 200 ppm [1] of 0% and an inhibition at 100 ppm (fungal inoculum; read-out: % growth inhibition) of 95.7%.
`O=C1CCC(c2ccc(Cl)cc2)=NN1CC#CI` [Compound 60] gave a pest or weed control at 200 ppm [1] of 50% and an inhibition at 10 ppm (fungal inoculum; read-out: % growth inhibition) of 100%.
In the case of `CCC#CCN1N=C(c2ccc(Cl)c(C)c2)CCC1=O` [Compound 62], the pest or weed control at 200 ppm [1] is reported as 99% and the inhibition at 1 ppm (fungal inoculum; read-out: % growth inhibition) is reported as 100%.
